Reference: EP3033433B1, “DETECTION OF ORGANOPHOSPHATE RESISTANCE IN CRUSTACEANS” (priority 2013, dated 2015)
≈ marks a conversion by molar mass, not a printed value. Read-outs that look alike come from different tables or passages of the source.

Tests used:
sea lice (L. salmonis) [1] = experiment: Small scale laboratory treatment of fish infected with salmon lice; format: in vivo, Lepeophtheirus salmonis; conditions: 100 ppb azamethiphos
Excerpt: (§1) The parasites had to be tested by a bioassay method, i.e. exposure to increasing concentrations of the agent to see how much they tolerated. As no bioassay method for salmon lice sensitivity towards azamethiphos was published, an unpublished protocol had to be used, with necessary adaptations. To be on the safe side, small scale laboratory treatments with fish infected with parasites containing only the wild-type enzyme versus fish infected with parasites containing the mutation were also successfully performed and confirmed the bioassay results.
The strains were: LSAlta: Sampled 2010, inbred for approx. 10 generations. No history of insensivity towards azamethiphos. LSBjugn: Sampled 2008, inbred for approx. 15 generations. History of insensitivity towards azamethiphos. LSGulen: Sampled in 2004, inbred for approx. 25 generations. No history of insensivity towards azamethiphos. LSHitra: Sampled in 2011, inbred for approx. 7 generations. History of insensitivity towards azamethiphos. LSHitra-s: Subset of LSHitra where fish with parasites were treated with 100 ppb azamethiphos (Salmosan™) for 30 minutes in a 200 liter fibre-glass tank. The subset is the surviving parasites after treatment. […]
The sensitivity of the strains analyzed was tested by traditional bioassays and small scale treatments (Helgesen et al., 2013). […]

sea lice (L. salmonis) [2] = experiment: Bioassay of sea lice strains' sensitivity to azamethiphos (exposure to increasing concentrations); format: in vivo; conditions: Lepeophtheirus salmonis
Excerpt: as §1
The sensitivity of the strains analyzed was tested by traditional bioassays and small scale treatments (Helgesen et al., 2013). The history of the strains were LSAlta: Sampled 2010, inbred for approx. 10 generations. Fully sensitive to all agents LSBjugn: Sampled 2008, inbred for approx. 15 generations. Moderately resistant to azamethiphos, pyrethroids and emamectin benzoate. LSGulen: Sampled in 2004, inbred for approx. 25 generations. Fully sensitive to all agents LSHitra: Sampled in 2011. Resistant towards azamethiphos (not tested for other agents). Inbred for approx. 7 generations. LSHitra-s: Subset of LSHitra where fish with parasites were treated with 100 ppb azamethiphos (Salmosan™) for 30 minutes in a 200 liter fibre-glass tank. The subset is the surviving parasites after treatment. LSVeso: Sampled in 2012 in the field (Otterøya) shortly after a full-scale treatment with azamethiphos in the farm. Only surviving parasites were sampled.

[3] = system: acetyl cholin esterase from sea lice (L. salmonis); conditions: within 2 minutes, 0.01 µM azamethiphos, samples collected 2000 - 2002, cited from earlier work
[4] = biological target: Phe371Tyr, Drosophila amino acid sequence (Drosophila melanogaster, UniProt P07140, F409Y); conditions: Phe371Tyr mutant versus wild type enzyme; cited from earlier work

With COP(=O)(OC)SCn1c(=O)oc2cc(Cl)cnc21 [azamethiphos, S-[(6-Chloro-2-oxo[1,3]oxazolo[4,5-b]pyridin-3(2H)-yl)methyl]O,O-dimethyl phosphorothioate] the “Treatment efficacy (%) mean” value (sea lice (L. salmonis) [1]; strain LSAlta (fully sensitive)) was 100%, the “Treatment efficacy (%) mean” value (sea lice (L. salmonis) [1]; strain LSHitra (resistant)) was 50% and the EC50 (sea lice (L. salmonis) [2]; strain LSAlta) was 2.1 ng/mL. For the same molecule, the EC50 (sea lice (L. salmonis) [2]; strain LSBjugn, read-out: EC50) was 4.5 ng/mL (≈ 0.0139 µM), the EC50 (sea lice (L. salmonis) [2]; strain LSGulen, read-out: EC50) was 1.8 ng/mL (≈ 0.00554 µM) and the EC50 (sea lice (L. salmonis) [2]; strain LSHitra, read-out: EC50) was 60 ng/mL (≈ 0.185 µM). For the same molecule, the EC50 (sea lice (L. salmonis) [2]; strain LSVeso, tested at only one concentration, read-out: EC50) was > 100 ng/mL, the “acetyl cholin esterase inhibited” value ([3]; samples with bi-exponential decline rate (most likely heterozygot resistant), activity remained at this level) was “approx. 80%” and the enzyme activity inhibited ([3]; samples with mono-exponential decline rate (most likely wild type)) was “inhibited completely”.

For CCOP(=O)(OCC)Oc1ccc([N+](=O)[O-])cc1 [paraoxon], the “decrease the sensitivity of the enzyme” value [4] is listed as 200 fold.
